Test results: patent US20160030415A1, “TREATMENT AND PROPHYLAXIS OF KIDNEY DISEASES” (priority 2013, published 2016)

Experiments:
[1] = test system: Streptozocin (STZ) induced diabetic rats; assay: Study 1: HCQ and its combination with Losartan in renal damage, comparison with diabetic control; assay type: in vivo, Wistar rats; settings: after 8 weeks oral once daily, Losartan 5.5 mg/kg, Hydroxychloroquine 22.5 mg/kg; for GSH (% Naive) / GSH Mean ± SEM / TBARS (% Naive) / TBARS Mean ± SEM: kidney homogenate
Experimental: The Efficacy of the drugs was tested in two different models, one involving comparison with diabetic control (i.e. Diabetic Rats not treated with any medication) and the other involving comparison with the anti-diabetic control group (i.e. Diabetic rats administered Glimepiride) in two separate studies. 25 male Wistar rats weighing 150-250 g were divided randomly into 5 groups consisting of 5 animals each. Diabetes was induced in rats by single administration of streptozotocin (55 mg/kg/i.p) dissolved in 0.1 M-citrate buffer, pH 4.5. Group 1 (normal control) consisted of normal rats that neither received Streptozotocin (STZ) nor any test drug; Group 2 served as streptozotocin induced diabetic control. Group 3 was diabetic rats treated with Losartan (LT) (5.5 mg/kg); Group 4 was diabetic rats treated with Hydroxychloroquine (HCQ) (22.5 mg/kg), Group 5 was diabetic rats treated with combination of HCQ (22.5 mg/kg) and LT (5.5 mg/kg). The study drugs were dissolved/suspended in distilled water and administered orally once a day for eight weeks. Blood glucose levels and renal oxidative stress parameters including TBARS, GSH and total Protein in Kidney Homogenate were assessed after the completion of eighth week of the study.

[2] = test system: STZ induced diabetic nephropathy in rats; assay: Study 4: HCQ and its combination with Losartan, Telmisartan, Azilsartan and Ramipril, with Glimepiride control; assay type: in vivo, Wistar rats; settings: for HDL / TC / TG / GSH / TBARS / Total protein kidney / Creatinine / Total protein / Urea: after 8th week; for Glucose Day1 / Glucose Day14 / Glucose Day28 / Glucose Day42 / Glucose Day56: blood; for GSH / TBARS / Total protein kidney: kidney homogenate; for Creatinine / Total protein / Urea: serum
Experimental: The methods described in Terri et al, Diabetes Volume, 1997, 46:1612-1618, and Takashi et al, Jpn J. Pharmacol, 1997, 75, 59-64, were followed for inducing Diabetes in rats by injecting Streptozotocin. The Efficacy of the drugs was tested in two different models, one involving comparison with diabetic control (i.e. Diabetic Rats not treated with any medication) and the other involving comparison with the anti-diabetic control group (i.e. Diabetic rats administered Glimepiride) in two separate studies.
Wistar rats of either sex weighing 150-200 g were divided randomly into 28 groups consisting of 6 animals each. Diabetes was induced in rats by single administration of streptozotocin (55 mg/kg/i.p) dissolved in 0.1 M-citrate buffer, pH 4.5. Group 1 (normal control) consisted of normal rats that neither received streptozotocin nor any test drug; Group 2 served as Diabetic control; Group 3 was diabetic rats treated with Hydroxychloroquine (35 mg/kg); Group 4 was diabetic rats treated with Hydroxychloroquine (45 mg/kg) and Group 5 was diabetic rats treated with Hydroxychloroquine (70 mg/kg); Group 6 was diabetic rats treated with Losartan (5.5 mg/kg); Group 7 was diabetic rats treated with Losartan (11 mg/kg); Group 8 was diabetic rats treated with combination of Losartan (5.5 mg/kg) and Hydroxychloroquine (45 mg/kg); Group 9 was diabetic rats treated with combination of Losartan (11 mg/kg) and Hydroxychloroquine (35 mg/kg); Group 10 was diabetic rats treated with Ramipril (0.6 mg/kg); Group 11 was diabetic rats treated with Ramipril (0.3 mg/kg); Group 12 was diabetic rats treated with combination of Ramipril (0.6 mg/kg) and Hydroxychloroquine (35 mg/kg); Group 13 was diabetic rats treated with combination of Ramipril (0.3 mg/kg) and Hydroxychloroquine (45 mg/kg); Group 14 was diabetic rats treated with combination of Ramipril (0.6 mg/kg) and Hydroxychloroquine (45 mg/kg); Group 15 was diabetic rats treated with combination of Ramipril (0.3 mg/kg) and Hydroxychloroquine (35 mg/kg); Group 16 was diabetic rats treated with Telmisartan (9.5 mg/kg); Group 17 was diabetic rats treated with Telmisartan (4.5 mg/kg); Group 18 was diabetic rats treated with combination of Telmisartan (9.5 mg/kg) and Hydroxychloroquine (35 mg/kg); Group 19 was diabetic rats treated with combination of Telmisartan (4.5 mg/kg) and Hydroxychloroquine (45 mg/kg); Group 20 was diabetic rats treated with combination of Telmisartan (9.5 mg/kg) and Hydroxychloroquine (45 mg/kg); Group 21 was diabetic rats treated with combination of Telmisartan (4.5 mg/kg) and Hydroxychloroquine (35 mg/kg); Group 22 was diabetic rats treated with Azilsartan (4.5 mg/kg); Group 23 was diabetic rats treated with Azilsartan (2.5 mg/kg); Group 24 was diabetic rats treated with combination of Azilsartan (4.5 mg/kg) and Hydroxychloroquine (35 mg/kg); Group 25 was diabetic rats treated with combination of Azilsartan (2.5 mg/kg) and Hydroxychloroquine (45 mg/kg); Group 26 was diabetic rats treated with combination of Azilsartan (4.5 mg/kg) and Hydroxychloroquine (45 mg/kg); Group 27 was diabetic rats treated with combination of Azilsartan (2.5 mg/kg) and Hydroxychloroquine (35 mg/kg); Group 28 served as Anti-Diabetic control wherein diabetic rats were treated with antidiabetic drug Glimepiride (GLM) (1 mg/kg).
The study drugs were dissolved/suspended in vehicle and administered orally once a day for eight weeks. The diabetes mellitus induced nephropathy was assessed by estimating the level of serum urea, serum creatinine and total serum protein content after completion of eighth week of study. TBARS, GSH and Total Protein were measured as markers of renal oxidative stress in Kidney Homogenate after completion of eighth week of study. Blood glucose levels were also assessed at weekly interval.

[3] = dose mg/kg: HCQ 35, LT 5.5, RM 0.3, TL 4.5, AZ 2.5, alone or combined with HCQ 35
[4] = dose mg/kg: HCQ 45, LT 11, RM 0.6, TL 9.5, AZ 4.5, alone or combined with HCQ 45

CCN(CCO)CCCC(C)Nc1ccnc2cc(Cl)ccc12 (centres unmarked) [Hydroxychloroquine, 2-[{4-[(7-chloroquinolin-4-yl)amino]pentyl}(ethyl)amino]ethanol]
Blood glucose level (% Control) [1]: (62.64)) % Control
Blood glucose level Mean ± SEM [1]: 369.9 ± 42.3 mg/dL
Total Protein in Kidney Homogenate (% Naive) [1]: (190.71) % Naive
Total Protein in Kidney Homogenate Mean ± SEM [1]: 1098.00 ± 23.12 µg/mL
GSH (% Naive) [1]: (41.92) % Naive
GSH Mean ± SEM [1]: 0.827 ± 0.08 nM/mg
TBARS (% Naive) [1]: (178.29) % Naive
TBARS Mean ± SEM [1]: 0.772 ± 0.06 nM/mg
HDL [2, 3]: 29.5 ± 2.17 mg/dL
TC [2, 3]: 133.5 ± 3.62 mg/dL
TG [2, 3]: 94.83 ± 2.48 mg/dL
HDL [2, 4]: 29 ± 2.19 mg/dL
TC [2, 4]: 130.33 ± 2.07 mg/dL
TG [2, 4]: 96.83 ± 2.93 mg/dL
HDL ([2]; dose mg/kg: HCQ 70, GLM 1): 30.67 ± 1.86 mg/dL
TC ([2]; dose mg/kg: HCQ 70, GLM 1): 124.67 ± 2.94 mg/dL
TG ([2]; dose mg/kg: HCQ 70, GLM 1): 90.17 ± 3.49 mg/dL
Glucose Day1 [2, 3]: 268.83 ± 17.77 mg/dL
Glucose Day1 [2, 4]: 277.5 ± 17.74 mg/dL
Glucose Day1 ([2]; dose mg/kg: HCQ 70, GLM 1): 274.5 ± 16.01 mg/dL
Glucose Day14 [2, 3]: 203.33 ± 28.11 mg/dL
Glucose Day14 [2, 4]: 229.17 ± 10.38 mg/dL
Glucose Day14 ([2]; dose mg/kg: HCQ 70, GLM 1): 209.67 ± 21.69 mg/dL
Glucose Day28 [2, 3]: 176.83 ± 29.1 mg/dL
Glucose Day28 [2, 4]: 184.17 ± 14.5 mg/dL
Glucose Day28 ([2]; dose mg/kg: HCQ 70, GLM 1): 169.5 ± 10.48 mg/dL
Glucose Day42 [2, 3]: 165 ± 13.61 mg/dL
Glucose Day42 [2, 4]: 154.17 ± 9.13 mg/dL
Glucose Day42 ([2]; dose mg/kg: HCQ 70, GLM 1): 148.67 ± 8.5 mg/dL
Glucose Day56 [2, 3]: 151.5 ± 7.42 mg/dL
Glucose Day56 [2, 4]: 140 ± 7.56 mg/dL
Glucose Day56 ([2]; dose mg/kg: HCQ 70, GLM 1): 130.83 ± 7.22 mg/dL
GSH [2, 3]: 0.71 ± 0.16 nM/mg
TBARS [2, 3]: 0.67 ± 0.11 nM/mg
Total protein kidney [2, 3]: 865.33 ± 27.9 µg/mL
GSH [2, 4]: 0.7 ± 0.17 nM/mg
TBARS [2, 4]: 0.65 ± 0.13 nM/mg
Total protein kidney [2, 4]: 831.67 ± 24.15 µg/mL
GSH ([2]; dose mg/kg: HCQ 70, GLM 1): 0.67 ± 0.19 nM/mg
TBARS ([2]; dose mg/kg: HCQ 70, GLM 1): 0.63 ± 0.12 nM/mg
Total protein kidney ([2]; dose mg/kg: HCQ 70, GLM 1): 752.33 ± 18.8 µg/mL
Creatinine [2, 3]: 3.11 ± 0.16 mg/dL
Total protein [2, 3]: 4.52 ± 0.39 g/dL
Urea [2, 3]: 44.33 ± 1.75 mg/dL
Creatinine [2, 4]: 2.99 ± 0.34 mg/dL
Total protein [2, 4]: 5.4 ± 0.36 g/dL
Urea [2, 4]: 40.83 ± 2.14 mg/dL
Creatinine ([2]; dose mg/kg: HCQ 70, GLM 1): 2.68 ± 0.23 mg/dL
Total protein ([2]; dose mg/kg: HCQ 70, GLM 1): 5.72 ± 0.3 g/dL
Urea ([2]; dose mg/kg: HCQ 70, GLM 1): 38.17 ± 1.47 mg/dL

CCCCc1nc(Cl)c(CO)n1Cc1ccc(-c2ccccc2-c2nn[nH]n2)cc1 [Losartan]
Blood glucose level (% Control) [1]: (98.57) % Control
Blood glucose level Mean ± SEM [1]: 582.1 ± 00^ mg/dl
Total Protein in Kidney Homogenate (% Naive) [1]: (204.95) % Naive
Total Protein in Kidney Homogenate Mean ± SEM [1]: 1180.00 µg/mL
GSH (% Naive) [1]: (41.92) % Naive
GSH Mean ± SEM [1]: 0.827 nM/mg
TBARS (% Naive) [1]: (186.61) % Naive
TBARS Mean ± SEM [1]: 0.808 nM/mg
HDL [2, 3]: 27.5 ± 1.64 mg/dL
TC [2, 3]: 143.5 ± 3.39 mg/dL
TG [2, 3]: 100 ± 5.4 mg/dL
HDL [2, 4]: 28.5 ± 2.88 mg/dL
TC [2, 4]: 139.83 ± 3.19 mg/dL
TG [2, 4]: 98.83 ± 3.66 mg/dL
Glucose Day1 [2, 3]: 262.5 ± 25.35 mg/dL
Glucose Day1 [2, 4]: 268.67 ± 15.63 mg/dL
Glucose Day14 [2, 3]: 211.17 ± 21.48 mg/dL
Glucose Day14 [2, 4]: 215.67 ± 18.13 mg/dL
Glucose Day28 [2, 3]: 179.33 ± 7.84 mg/dL
Glucose Day28 [2, 4]: 178 ± 7.92 mg/dL
Glucose Day42 [2, 3]: 161.17 ± 4.71 mg/dL
Glucose Day42 [2, 4]: 152.17 ± 7.28 mg/dL
Glucose Day56 [2, 3]: 146.33 ± 6.65 mg/dL
Glucose Day56 [2, 4]: 139 ± 10.92 mg/dL
GSH [2, 3]: 0.56 ± 0.23 nM/mg
TBARS [2, 3]: 0.74 ± 0.1 nM/mg
Total protein kidney [2, 3]: 893.33 ± 29.92 µg/mL
GSH [2, 4]: 0.66 ± 0.23 nM/mg
TBARS [2, 4]: 0.63 ± 0.17 nM/mg
Total protein kidney [2, 4]: 829.67 ± 25.45 µg/mL
Creatinine [2, 3]: 3.36 ± 0.32 mg/dL
Total protein [2, 3]: 4.91 ± 0.2 g/dL
Urea [2, 3]: 39.83 ± 1.72 mg/dL
Creatinine [2, 4]: 3.26 ± 0.38 mg/dL
Total protein [2, 4]: 5.32 ± 0.2 g/dL
Urea [2, 4]: 41 ± 2.53 mg/dL
